Experiments:
[1] = Pharmacokinetic (PK) experiment in rats by gavage; type: in vivo; conditions: rat, plasma, po, male SD rats, 20 mg/kg; for AUC(0-t): read-out: AUC0-24
Method: Male SD rats, weighing 180-250 g, were fasted overnight before the test and stomach administrated with the test compound at 20 mg/kg. 15 minutes, 30 minutes, and 1, 2, 4, 6, 8, and 24 hours after administration, blood was taken from the end of the tail of the fracture, about 0.3 mL per time point, then placed in a centrifuge tube containing K2-EDTA, and centrifuged (2000 g, 10 min, at 4° C.). Plasma was collected and stored in an ultra-low temperature freezer at −80° C. 50 μL of plasma samples were vortexed with 135 μL of acetonitrile (containing 1 μg/mL internal standard) for protein precipitation and centrifuged, and the supernatant was collected for LC-MS/MS analysis.
After the rats oral administrated with the Pyridopyrimidinone compounds provided by the present disclosure, the absorption is good, and the blood exposure is relatively high. […] Cmax refers to the maximum plasma concentration, T1/2 is the half-life, AUC0-24 refers to the area under the 0-24 hour time-concentration curve, and AUC0-inf refers to the area under the 0-Inf time-concentration curve.

MIA-Paca2 (KRAS G12C) = assay: Tumor cell proliferation inhibition assay (CellTiter-Glo), MIA-Paca2; type: cell-based, Human; conditions: 10% fetal bovine serum
Method: (§1) The H358, H23 or MIA-Paca2 cells were digested, centrifuged and resuspended, and the cell density was measured with a Scepter automatic cell counter. Cells were diluted to a solution containing 44,000 cells per milliliter, then added to a 96-well culture plate at 90 μL per well. The 96-well plate was placed in a 5% CO2 incubator at 37° C., and after the cells were cultured for 24 hours, different concentrations of the compounds to be tested were added. Cells were incubated with compounds in the presence of 10% fetal bovine serum for 72 hours. The inhibition of cell growth was assessed by measuring ATP levels by using the CellTiter-Glo Luminescent Cell Viability Assay Kit (details in manufacturer's instructions). In brief, 30 μL of CellTiter-Glo reagent was added to each well and the plate was shaken for 10 minutes to induce cell lysis, then the fluorescent signal was detected and recorded with a Fluoroskan Ascent FL (Thermo). Maximum signal values were obtained from cells treated with DMSO for 72 hours. Minimum signal values were obtained with medium only (zero cell number). Inhibition rate %=(maximum signal value-compound signal value)/(maximum signal value-minimum signal value)×100%. Data were processed by using Graphpad prism5 software. IC50 values were calculated using a sigmoidal dose-response curve.

H358 (KRAS G12C) = assay: Tumor cell proliferation inhibition assay (CellTiter-Glo), H358; type: cell-based, Human; conditions: 10% fetal bovine serum
Method: as §1

Structure (SMILES)	IC50 (MIA-Paca2 (KRAS G12C); Homo sapiens, MIA PaCa-2, 72 h) [nM]	IC50 (H358 (KRAS G12C); Homo sapiens, NCI-H358, 72 h) [nM]	also measured
C=CC(=O)N1CCN(c2nc(=O)n(-c3c(C)ccnc3C(C)C)c3nc(-c4c(F)cc(F)c5ccoc45)c(Cl)cc23)[C@@H](C)C1 [Compound 102, 4-((S)-4-acryloyl-2-methylpiperazin-1-yl)-6-chloro-7-(4,6-difluorobenzofuran-7-yl)-1-(2-isopropyl-4-methylpyridin-3-yl)pyrido[2,3-d]pyrimidin-2(1H)-one]	10 to 50	< 10	AUC(0-inf) [1]: 14200 ng·h/mL; Cmax [1]: 3720 ng/mL; Tmax [1]: 1 h; half-life [1]: 2.85 h; AUC(0-t) [1]: 14200 ng·h/mL
C=CC(=O)N1CCN(c2nc(=O)n(-c3c(C)ccnc3C(C)C)c3nc(-c4c(F)ccc5c4OCCO5)c(F)cc23)[C@@H](C)C1 [Compound 72, 4-((S)-4-acryloyl-2-methylpiperazin-1-yl)-6-fluoro-7-(6-fluoro-2,3-dihydrobenzo[b][1,4]dioxin-5-yl)-1-(2-isopropyl-4-methylpyridin-3-yl)pyrido[2,3-d]pyrimidin-2(1H)-one]	10 to 50	10 to 50	
C=CC(=O)N1C[C@H](C)N(c2nc(=O)n(-c3c(C)ccnc3C(C)C)c3nc(-c4c(F)ccc5ccoc45)c(F)cc23)C[C@H]1C (atropisomer, axis not shown; (P)) [Compound 89-2, 4-((2S,5R)-4-acryloyl-2,5-dimethylpiperazin-1-yl)-6-fluoro-7-(6-fluorobenzofuran-7-yl)-1(P)-(2-isopropyl-4-methylpyridin-3-yl)pyrido[2,3-d]pyrimidin-2(1H)-one]			IC50 (MIA-Paca2 (KRAS G12C); 72 hours): > 500 nM; IC50 (H358 (KRAS G12C); 72 hours): 11 nM
C=CC(=O)N1CCN(c2nc(=O)n(-c3c(C)ccnc3C(C)C)c3nc(-c4c(F)ccc5ccoc45)c(F)cc23)C[C@@H]1CC#N (atropisomer, axis not shown; (M)) [Compound 100-1, 2-((2S)-1-acryloyl-4-(6-fluoro-7-(6-fluorobenzofuran-7-yl)-1(M)-(2-isopropyl-4-methylpyridin-3-yl)-2-oxo-1,2-dihydropyrido[2,3-d]pyrimidin-4-yl)piperazin-2-yl)acetonitrile]		100 to 500	
C=CC(=O)N1CCN(c2nc(=O)n(-c3c(C(C)C)ncnc3C(C)C)c3nc(-c4c(F)ccc5ccoc45)c(Cl)cc23)[C@@H](C)C1 [Compound 118, 4-((S)-4-acryloyl-2-methylpiperazin-1-yl)-6-chloro-1-(4,6-diisopropylpyrimidin-5-yl)-7-(6-fluorobenzofuran-7-yl)pyrido[2,3-d]pyrimidin-2(1H)-one]		< 10	melting point: 254 to 256 °C
C=CC(=O)N1CCN(c2nc(=O)n(-c3c(C)ccnc3C(C)C)c3nc(-c4c(F)c(O)cc5ccoc45)c(Cl)cc23)[C@@H](C)C1 [Compound 110, 4-((S)-4-acryloyl-2-methylpiperazin-1-yl)-6-chloro-7-(6-fluoro-5-hydroxybenzofuran-7-yl)-1-(2-isopropyl-4-methylpyridin-3-yl)pyrido[2,3-d]pyrimidin-2(1H)-one]		10 to 50	melting point: 92 to 104 °C
C=CC(=O)N1CCN(c2nc(=O)n(-c3c(C)ccnc3C(C)C)c3nc(-c4cccc5ccoc45)c(F)cc23)[C@@H](C)C1 [Compound 107, (S)-4-(4-acryloyl-2-methylpiperazin-1-yl)-7-(benzofuran-7-yl)-6-fluoro-1-(2-isopropyl-4-methylpyridin-3-yl)pyrido[2,3-d]pyrimidin-2(1H)-one]	> 500	100 to 500	
C=CC(=O)N1CCN(c2nc(=O)n(-c3c(C)ccnc3C(C)C)c3nc(-c4c(F)ccc5c4OCO5)c(F)cc23)[C@@H](C)C1 [Compound 69, 4-((S)-4-acryloyl-2-methylpiperazin-1-yl)-6-fluoro-7-(5-fluorobenzo[d][1,3]dioxol-4-yl)-1-(2-isopropyl-4-methylpyridin-3-yl)pyrido[2,3-d]pyrimidin-2(1H)-one]	50 to 100	10 to 50	AUC(0-inf) [1]: 9930 ng·h/mL; Cmax [1]: 4390 ng/mL; Tmax [1]: 0.83 h; half-life [1]: 5.38 h; AUC(0-t) [1]: 9920 ng·h/mL
C=CC(=O)N1CCN(c2nc(=O)n(-c3c(C)ccnc3C(C)C)c3nc(-c4c(Cl)ccc5ccoc45)c(Cl)cc23)[C@@H](C)C1 [Compound 105, 4-((S)-4-acryloyl-2-methylpiperazin-1-yl)-6-chloro-7-(6-chlorobenzofuran-7-yl)-1-(2-isopropyl-4-methylpyridin-3-yl)pyrido[2,3-d]pyrimidin-2(1H)-one]	10 to 50	< 10	
C=CC(=O)N1CCN(c2nc(=O)n(-c3c(C)cccc3C(C)C)c3nc(-c4c(F)ccc5ccoc45)c(F)cc23)[C@@H](C)C1 [Compound 106, 4-((S)-4-acryloyl-2-methylpiperazin-1-yl)-6-fluoro-7-(6-fluorobenzofuran-7-yl)-1-(2-isopropyl-6-methylphenyl)pyrido[2,3-d]pyrimidin-2(1H)-one]	100 to 500	100 to 500	
C=CC(=O)N1CCN(c2nc(=O)n(-c3c(C)ccnc3C(C)C)c3nc(-c4c(F)ccc5ccoc45)c(Cl)cc23)C[C@@H]1CC#N (atropisomer, axis not shown; (M)) [Compound 101-1, 2-((2S)-1-acryloyl-4-(6-chloro-7-(6-fluorobenzofuran-7-yl)-1(M)-(2-isopropyl-4-methylpyridin-3-yl)-2-oxo-1,2-dihydropyrido[2,3-d]pyrimidin-4-yl)piperazin-2-yl)acetonitrile]		10 to 50	
C=CC(=O)N1CCN(c2nc(=O)n(-c3c(C)ccnc3C(C)C)c3nc(-c4c(F)ccc5c4OCCO5)c(Cl)cc23)[C@@H](C)C1 [Compound 98, 4-((S)-4-acryloyl-2-methylpiperazin-1-yl)-6-chloro-7-(6-fluoro-2,3-dihydrobenzo[b][1,4]dioxin-5-yl)-1-(2-isopropyl-4-methylpyridin-3-yl)pyrido[2,3-d]pyrimidin-2(1H)-one]	10 to 50	< 10	
C=CC(=O)N1CCN(c2nc(=O)n(-c3c(C(C)C)ccnc3C(C)C)c3nc(-c4c(F)ccc5ccoc45)c(F)cc23)[C@@H](C)C1 [Compound 121, 4-((S)-4-acryloyl-2-methylpiperazin-1-yl)-1-(2,4-diisopropylpyridin-3-yl)-6-fluoro-7-(6-fluorobenzofuran-7-yl)pyrido[2,3-d]pyrimidin-2(1H)-one]	10 to 50	10 to 50	
C=CC(=O)N1CCN(c2nc(=O)n(-c3c(C)ccnc3C(C)C)c3nc(-c4c(Cl)ccc5ccoc45)c(F)cc23)[C@@H](C)C1 [Compound 112, 4-((S)-4-acryloyl-2-methylpiperazin-1-yl)-7-(6-chlorobenzofuran-7-yl)-6-fluoro-1-(2-isopropyl-4-methylpyridin-3-yl)pyrido[2,3-d]pyrimidin-2(1H)-one]	50 to 100	10 to 50	
C=CC(=O)N1CCN(c2nc(=O)n(-c3ccccc3C(C)C)c3nc(-c4c(F)ccc5ccoc45)c(F)cc23)[C@@H](C)C1 [Compound 120, 4-((S)-4-acryloyl-2-methylpiperazin-1-yl)-6-fluoro-7-(6-fluorobenzofuran-7-yl)-1-(2-isopropylphenyl)pyrido[2,3-d]pyrimidin-2(1H)-one]	100 to 500	11	
C=CC(=O)N1CCN(c2nc(=O)n(-c3c(C)ccnc3C(C)C)c3nc(-c4cccc5cc[nH]c45)c(F)cc23)[C@@H](C)C1 [Compound 82, (S)-4-(4-acryloyl-2-methylpiperazin-1-yl)-6-fluoro-7-(1H-indol-7-yl)-1-(2-isopropyl-4-methylpyridin-3-yl)pyrido[2,3-d]pyrimidin-2(1H)-one]	> 500	1	
